Earlier results on 5 compounds are cited in patent US20260144771A1, “Use of Triheptanoin Oil for Primary-Specific Pyruvate Dehydrogenase Complex (PDC) Deficiency” (University of Pittsburgh - Of the Commonwealth System of …, priority 2022, published 2026).

The conditions of data set [1]: subjects with other mitochondrial disorders such as MELAS.
For data set [2] the following is noted: human, in vivo.
Another data set deals with PDC (Homo sapiens, UniProt P10515). Particulars: read-out: Ki for end-product inhibition of PDC.
For data set [3] the following is noted: a case of pyruvate carboxylase deficiency.
The conditions of data set [4]: subjects with FAO disorders.
The subject of data set [5] is PDC and 2-oxoglutarate dehydrogenase activities. The conditions noted are these: chronic epilepsy mouse model.

Structures are written as SMILES.

`O=C(O)C(Cl)Cl` [DCA, dichloroacetate]: the neuropathy entry in data set [1] was “associated with toxic neuropathy”.
As to `Cc1ncc(C[n+]2csc(CCO)c2C)c(N)n1` [Thiamine, thiamine], in data set [2], the adverse side-effects entry is reported as “has not been reported to have adverse side-effects”.
The Ki is the equilibrium dissociation constant of an inhibitor or competing ligand from its target. As to `CC(=O)SCCNC(=O)CCNC(=O)[C@H](O)C(C)(C)COP(=O)(O)OP(=O)(O)OC[C@H]1O[C@@H](n2cnc3c(N)ncnc32)[C@H](O)[C@@H]1OP(=O)(O)O` [acetyl-CoA], at PDC, the Ki is 5 to 10 µM.
In the case of `CCC(=O)SCCNC(=O)CCNC(=O)[C@H](O)C(C)(C)COP(=O)(O)OP(=O)(O)OC[C@H]1O[C@@H](n2cnc3c(N)ncnc32)[C@H](O)[C@@H]1OP(=O)(O)O` [propionyl-CoA], at PDC, the Ki is 3000 to 4000 µM.
Regarding `CCCCCCC(=O)OCC(COC(=O)CCCCCC)OC(=O)CCCCCC` [triheptanoin], the “most commonly reported side effect: GI distress, share of cases” value is ≥ 10 % of cases. Moreover, the biochemical outcomes in data set [3] is “rapid and significant improvement of biochemical outcomes”. Besides, the “biochemical and physical outcomes before and after treatment” value in data set [4] was “significant improvement in cardiomyopathy and decreased frequency and severity of rhabdomyolysis”. In data set [5], the “effect on PDC and 2-oxoglutarate dehydrogenase activities” value is reported as “prevented reduction”; the “incorporation of 13C derived from 13C-glucose in TCA cycle intermediates” value is given as “partially corrected the reduced incorporation”.
